# From ChEMBL document CHEMBL1201862, “PubChem BioAssay data set” (2004)
# Calls of active or inactive are those of the source.
# Legend:
# [1] = target: T1, Carboxy-terminal domain RNA polymerase II polypeptide A small phosphatase 1 (Homo sapiens, UniProt Q9GZU7); assay: inhibitors of CTDSP1, concentration-response testing, biochemical assay, absorbance-based, actives from ultra-high-throughput screening (AID 540297); assay type: functional
# T1 sequence (Q9GZU7 whole entry): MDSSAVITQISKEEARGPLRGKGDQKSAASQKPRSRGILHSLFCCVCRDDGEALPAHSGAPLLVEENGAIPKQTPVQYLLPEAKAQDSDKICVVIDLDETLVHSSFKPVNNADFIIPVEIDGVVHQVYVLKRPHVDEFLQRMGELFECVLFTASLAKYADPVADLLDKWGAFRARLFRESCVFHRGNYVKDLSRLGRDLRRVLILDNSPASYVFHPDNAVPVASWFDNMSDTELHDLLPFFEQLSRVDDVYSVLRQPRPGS
# Vero = assay: cells; assay type: functional; conditions: Chlorocebus sabaeus
# Streptococcus = assay: Group A Streptococcus viability loss, dose response, counter-screen for streptokinase expression inhibitor project, luminescence, BacTiterGlo (AID 1915); assay type: functional, organism-based;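 further: potency for reduction of bacterial viability or growth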
# [2] = test system: Streptococcus sp. 'group A'; assay: growth inhibition of control SK(-) GAS strain, dose response, counter-screen for streptokinase expression inhibitor project, luminescence, kanamycin, BacTiterGlo, confirmation (AID 1900); assay type: functional, organism-based
# Streptokinase A = target: T2, Streptokinase A (Streptococcus pyogenes serotype M1, UniProt P10520); assay: S. pyogenes streptokinase expression inhibitors, potency, dose response, plasminogen activation absorbance, OD405 (AID 1914); assay type: functional, Streptococcus pyogenes M1 GAS;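 further: secreted streptokinase activity via plasminogen activation per viability signal from cell pellet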
# T2 sequence (P10520 whole entry): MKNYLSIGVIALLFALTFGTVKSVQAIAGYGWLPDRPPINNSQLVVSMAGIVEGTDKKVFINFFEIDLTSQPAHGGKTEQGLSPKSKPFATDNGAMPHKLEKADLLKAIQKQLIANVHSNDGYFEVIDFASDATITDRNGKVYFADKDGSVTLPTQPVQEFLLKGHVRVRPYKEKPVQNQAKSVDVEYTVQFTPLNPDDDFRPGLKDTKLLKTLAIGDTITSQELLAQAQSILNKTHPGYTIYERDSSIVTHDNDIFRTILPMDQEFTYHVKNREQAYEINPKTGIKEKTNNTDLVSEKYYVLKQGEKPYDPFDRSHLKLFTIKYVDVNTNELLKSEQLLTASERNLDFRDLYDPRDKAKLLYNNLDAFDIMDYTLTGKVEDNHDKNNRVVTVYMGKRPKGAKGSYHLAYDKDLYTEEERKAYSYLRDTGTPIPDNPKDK
# [3] = target: T3, Short transient receptor potential channel 4 (Mus musculus, UniProt Q9QUQ5); assay: mouse TRPC4 channel activators, dose response, cell-based, HEK293 TRPC4/mu-opioid, Fluo-4 calcium (AID 434937); assay type: functional
# T3 sequence (Q9QUQ5 whole entry): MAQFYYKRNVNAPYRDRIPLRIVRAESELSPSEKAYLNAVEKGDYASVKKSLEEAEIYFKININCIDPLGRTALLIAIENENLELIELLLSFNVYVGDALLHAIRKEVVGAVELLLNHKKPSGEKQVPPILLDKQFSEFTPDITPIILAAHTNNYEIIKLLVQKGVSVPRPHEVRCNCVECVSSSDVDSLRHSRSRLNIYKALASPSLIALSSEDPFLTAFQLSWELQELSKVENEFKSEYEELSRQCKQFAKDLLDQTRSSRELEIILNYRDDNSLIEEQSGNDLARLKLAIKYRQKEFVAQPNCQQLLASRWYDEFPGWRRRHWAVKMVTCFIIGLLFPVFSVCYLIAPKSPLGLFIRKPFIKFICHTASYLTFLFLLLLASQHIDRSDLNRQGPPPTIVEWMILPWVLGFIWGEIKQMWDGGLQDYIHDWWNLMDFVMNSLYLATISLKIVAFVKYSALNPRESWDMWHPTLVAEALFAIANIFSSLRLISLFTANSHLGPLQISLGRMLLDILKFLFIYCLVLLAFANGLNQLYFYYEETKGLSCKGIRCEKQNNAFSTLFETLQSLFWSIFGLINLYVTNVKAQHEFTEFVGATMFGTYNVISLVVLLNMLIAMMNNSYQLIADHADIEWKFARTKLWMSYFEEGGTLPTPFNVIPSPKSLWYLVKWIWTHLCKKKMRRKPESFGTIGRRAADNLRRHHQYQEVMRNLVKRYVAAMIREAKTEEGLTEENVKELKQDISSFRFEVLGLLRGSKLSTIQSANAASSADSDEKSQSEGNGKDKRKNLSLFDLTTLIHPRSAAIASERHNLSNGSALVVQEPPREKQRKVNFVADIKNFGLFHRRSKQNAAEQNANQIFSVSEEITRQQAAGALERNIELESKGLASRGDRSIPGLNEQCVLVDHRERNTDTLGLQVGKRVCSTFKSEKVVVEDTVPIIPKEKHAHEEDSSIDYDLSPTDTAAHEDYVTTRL
# [4] = target: Heat shock protein HSP 90-alpha (Homo sapiens, UniProt P07900); assay type: functional, organism-based
# [5] = target: T4, Histone-lysine N-methyltransferase NSD2 (Homo sapiens, UniProt O96028); assay type: biochemical
# T4 sequence (O96028 whole entry): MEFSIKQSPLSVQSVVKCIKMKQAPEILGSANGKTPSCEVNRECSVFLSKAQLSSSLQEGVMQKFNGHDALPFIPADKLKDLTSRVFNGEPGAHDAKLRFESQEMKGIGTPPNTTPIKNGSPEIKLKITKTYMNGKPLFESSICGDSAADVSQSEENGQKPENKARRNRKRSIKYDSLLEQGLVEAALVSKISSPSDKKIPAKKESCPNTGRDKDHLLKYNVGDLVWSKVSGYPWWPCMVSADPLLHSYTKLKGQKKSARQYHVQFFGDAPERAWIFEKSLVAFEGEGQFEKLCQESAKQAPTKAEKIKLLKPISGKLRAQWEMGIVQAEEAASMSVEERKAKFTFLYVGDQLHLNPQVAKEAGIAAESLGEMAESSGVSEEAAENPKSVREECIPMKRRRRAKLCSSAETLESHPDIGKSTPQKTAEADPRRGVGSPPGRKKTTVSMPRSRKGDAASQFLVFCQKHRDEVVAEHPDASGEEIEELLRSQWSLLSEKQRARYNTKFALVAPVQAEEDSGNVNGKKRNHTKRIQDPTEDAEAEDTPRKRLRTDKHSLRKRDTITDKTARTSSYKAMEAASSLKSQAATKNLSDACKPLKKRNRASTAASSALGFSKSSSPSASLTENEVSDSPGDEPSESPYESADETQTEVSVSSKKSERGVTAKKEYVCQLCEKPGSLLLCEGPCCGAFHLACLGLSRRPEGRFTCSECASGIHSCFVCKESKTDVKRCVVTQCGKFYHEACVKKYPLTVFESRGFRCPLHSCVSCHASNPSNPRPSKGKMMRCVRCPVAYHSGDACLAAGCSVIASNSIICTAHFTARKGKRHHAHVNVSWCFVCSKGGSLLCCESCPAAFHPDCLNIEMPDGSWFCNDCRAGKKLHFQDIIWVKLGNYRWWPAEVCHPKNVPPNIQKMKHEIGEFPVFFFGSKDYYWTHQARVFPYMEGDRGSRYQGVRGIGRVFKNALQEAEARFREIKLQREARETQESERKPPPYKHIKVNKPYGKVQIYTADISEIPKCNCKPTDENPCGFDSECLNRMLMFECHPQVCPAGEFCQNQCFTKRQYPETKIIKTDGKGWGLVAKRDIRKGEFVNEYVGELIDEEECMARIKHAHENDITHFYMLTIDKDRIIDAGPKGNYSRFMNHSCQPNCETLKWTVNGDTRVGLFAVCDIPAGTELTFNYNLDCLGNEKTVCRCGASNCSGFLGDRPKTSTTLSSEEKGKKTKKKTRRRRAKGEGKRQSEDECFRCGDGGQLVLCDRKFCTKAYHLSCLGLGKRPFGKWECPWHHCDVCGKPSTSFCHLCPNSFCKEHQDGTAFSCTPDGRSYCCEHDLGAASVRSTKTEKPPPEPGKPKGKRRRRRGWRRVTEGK
# Nonstructural protein 1 = Nonstructural protein 1 (Influenza A virus, UniProt Q194T2); assay type: functional, Influenza A virus (A/California/07/2009(H1N1))
# Chain of Nonstructural protein 1 (Q194T2 whole entry): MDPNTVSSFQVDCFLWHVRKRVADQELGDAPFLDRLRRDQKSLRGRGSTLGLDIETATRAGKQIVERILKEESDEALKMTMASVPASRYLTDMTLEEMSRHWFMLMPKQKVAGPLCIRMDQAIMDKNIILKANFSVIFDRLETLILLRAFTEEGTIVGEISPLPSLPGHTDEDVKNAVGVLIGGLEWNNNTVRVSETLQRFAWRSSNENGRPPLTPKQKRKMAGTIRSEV
# Large T antigen = Large T antigen (Simian virus 40, UniProt P03070); assay type: functional, Betapolyomavirus macacae;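 further: Confirmatory-stage PubChem screen for compounds that inhibit SV40 T antigen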
# Chain of Large T antigen (P03070 whole entry): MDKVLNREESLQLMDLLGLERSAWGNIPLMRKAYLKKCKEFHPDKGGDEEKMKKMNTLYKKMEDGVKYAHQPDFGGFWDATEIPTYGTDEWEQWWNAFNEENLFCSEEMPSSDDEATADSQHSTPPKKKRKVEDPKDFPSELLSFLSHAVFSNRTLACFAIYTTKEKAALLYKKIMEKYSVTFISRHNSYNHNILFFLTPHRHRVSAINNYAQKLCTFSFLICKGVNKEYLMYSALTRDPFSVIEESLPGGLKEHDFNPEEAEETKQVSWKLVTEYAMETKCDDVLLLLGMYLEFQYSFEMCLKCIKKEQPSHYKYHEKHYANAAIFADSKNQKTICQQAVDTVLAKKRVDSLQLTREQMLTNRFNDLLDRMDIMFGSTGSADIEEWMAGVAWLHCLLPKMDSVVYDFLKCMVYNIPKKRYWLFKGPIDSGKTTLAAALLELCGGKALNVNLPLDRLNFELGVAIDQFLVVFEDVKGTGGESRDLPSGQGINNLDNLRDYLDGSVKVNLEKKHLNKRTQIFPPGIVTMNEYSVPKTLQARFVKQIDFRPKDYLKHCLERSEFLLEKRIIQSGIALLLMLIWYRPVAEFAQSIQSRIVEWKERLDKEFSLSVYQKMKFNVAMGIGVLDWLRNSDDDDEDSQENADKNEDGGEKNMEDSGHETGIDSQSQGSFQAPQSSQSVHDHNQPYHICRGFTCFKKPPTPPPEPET
# Caspase-6 = target: T5, Caspase-6 (Homo sapiens, UniProt P55212); assay: human caspase-6 inhibitors, dose response, biochemical, VEID-R110 fluorescence, cherry-pick (AID 720632)
# T5 sequence (P55212 whole entry): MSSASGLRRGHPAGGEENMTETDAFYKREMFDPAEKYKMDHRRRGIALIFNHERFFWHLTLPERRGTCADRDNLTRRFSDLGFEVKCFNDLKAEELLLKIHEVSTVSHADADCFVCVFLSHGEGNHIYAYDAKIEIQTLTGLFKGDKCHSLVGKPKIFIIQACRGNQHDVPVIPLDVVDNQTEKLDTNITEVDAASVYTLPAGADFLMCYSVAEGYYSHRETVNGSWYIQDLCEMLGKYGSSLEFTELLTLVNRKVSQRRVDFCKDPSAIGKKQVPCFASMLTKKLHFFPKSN
# [6] = target: Luciferin 4-monooxygenase (Photinus pyralis, UniProt P08659); assay: firefly luciferase enzyme inhibitors, dose response, biochemical, luminescence (AID 1891)
# Chain of Luciferin 4-monooxygenase (P08659 whole entry): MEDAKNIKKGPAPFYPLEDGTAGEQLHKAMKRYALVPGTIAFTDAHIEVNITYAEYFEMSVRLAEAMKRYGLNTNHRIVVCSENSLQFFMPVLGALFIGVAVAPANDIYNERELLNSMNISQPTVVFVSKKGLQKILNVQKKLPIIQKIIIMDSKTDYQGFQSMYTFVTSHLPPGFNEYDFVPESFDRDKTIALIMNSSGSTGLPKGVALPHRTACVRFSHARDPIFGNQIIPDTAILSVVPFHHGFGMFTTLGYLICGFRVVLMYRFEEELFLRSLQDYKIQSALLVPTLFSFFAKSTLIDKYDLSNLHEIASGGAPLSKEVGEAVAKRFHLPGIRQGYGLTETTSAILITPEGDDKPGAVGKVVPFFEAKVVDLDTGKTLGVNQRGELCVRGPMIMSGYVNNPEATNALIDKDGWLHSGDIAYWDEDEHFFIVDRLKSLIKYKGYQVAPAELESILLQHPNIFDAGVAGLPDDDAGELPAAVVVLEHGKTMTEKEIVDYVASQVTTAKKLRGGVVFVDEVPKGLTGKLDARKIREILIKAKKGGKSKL
# [7] = Luminescence Cell-Based Dose Confirmation HTS to Identify Inhibitors of Platelet Dense Granule Release. [Related pubchem assays: 1663 (Primary HTS), 1678 (Summary of Project)]; assay type: functional
# [8] = target: T6, Rac GTPase-activating protein 1 (Homo sapiens, UniProt Q9H0H5); assay: MgcRacGAP GTPase-activating activity inhibitors, confirmation, biochemical, ADP Hunter fluorescence, primary and confirmatory (AID 624330); assay type: functional
# T6 sequence (Q9H0H5 whole entry): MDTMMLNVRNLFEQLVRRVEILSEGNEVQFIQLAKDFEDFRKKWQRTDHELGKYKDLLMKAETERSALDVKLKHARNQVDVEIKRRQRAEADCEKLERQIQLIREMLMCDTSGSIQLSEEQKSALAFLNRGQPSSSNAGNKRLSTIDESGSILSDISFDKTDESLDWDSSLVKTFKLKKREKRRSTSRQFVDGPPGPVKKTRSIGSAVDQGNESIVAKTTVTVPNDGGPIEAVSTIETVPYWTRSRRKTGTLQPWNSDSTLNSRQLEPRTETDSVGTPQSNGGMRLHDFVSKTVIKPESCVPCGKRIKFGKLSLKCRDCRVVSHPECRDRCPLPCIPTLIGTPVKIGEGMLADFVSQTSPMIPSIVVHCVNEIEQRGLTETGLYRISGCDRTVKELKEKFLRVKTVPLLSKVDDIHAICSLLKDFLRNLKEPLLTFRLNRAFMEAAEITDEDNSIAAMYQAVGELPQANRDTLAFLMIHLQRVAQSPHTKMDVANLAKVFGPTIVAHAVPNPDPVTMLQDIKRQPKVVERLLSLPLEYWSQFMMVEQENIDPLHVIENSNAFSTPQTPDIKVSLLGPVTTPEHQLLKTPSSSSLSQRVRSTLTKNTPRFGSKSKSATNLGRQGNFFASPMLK
# [9] = Shn3 3'UTR reporter inhibitors, dose response, cell-based, Clone20 osteoblasts, firefly luciferase, cherry-picked (AID 624132); assay type: functional;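 further: firefly luciferase luminescence from reporter carrying the Shn3 3'UTR in osteoblasts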
# [10] = control 3'UTR Renilla luciferase suppression, dose response, counter-screen for Shn3 inhibitor project, cell-based, Clone20-Shn3RL, cherry-picked (AID 624133); assay type: functional
# [11] = HepG2 cell cytotoxicity, dose response, cytotoxicity control for Shn3 inhibitor project, CellTiter-Glo, cherry-picked (AID 624134); assay type: functional, cell-based
# [12] = Luminescence Cell-Based Dose Retest to Confirm Inhibitors of Cancer Stem Cells. [Related pubchem assays (depositor defined):AID2717, AID2721]; assay type: functional; conditions: Homo sapiens
structure (smiles),measurement,setting,value
COc1ccc(-c2nnc(NC(=O)c3cccs3)s2)c(OC)c1,IC50,[1],3.57 µM (active)
Cc1oc(-c2ccccc2Cl)nc1Cn1cccc1C1=NC(c2ccccc2)CO1 (stereo not given),CC50,Vero,> 25 µM (active)
same,EC50,Streptococcus,> 150 µM (not active)
same,EC50,[2],> 150 µM (not active)
same,EC50,Streptokinase A,> 50 µM (not active)
Cc1ccc(OCC(=O)NNC(=S)NC(=O)C(C)(C)C)c(Br)c1,EC50,[3],4.73 µM (active)
same,AC50,[4],4.75 µM (active)
COC(=O)C1CCN(C2=C(NS(=O)(=O)c3ccc(Cl)cc3)C(=O)c3ccccc3C2=O)CC1,AC50,[5],13.1 µM (active)
same,IC50,Nonstructural protein 1,27.4 µM (active)
Cc1cc(/C=C2\SC(=S)N=C2O)c(C)n1-c1cccc(O)c1,AC50,[4],8.8 µM (active)
same,EC50,Streptokinase A,> 150 µM (not active)
Cc1cccc(NC(=O)CSc2nc3nc(O)cc(O)c3s2)c1,IC50,[1],15.9 µM (active)
Cc1ccc(NC(=O)CC2=NC(=O)C(CC(=O)Nc3ccccc3F)S2)cc1 (stereo not given),AC50,[5],19.1 µM (active)
CSc1nnc(C)c(/C=C/Nc2ccc(F)cc2F)n1,IC50,[1],13.3 µM (active)
C[Se]C[C@@H](N)C(=O)O,IC50,[1],15 µM (active)
Cc1c(CN(C)C)c2c(n1Cc1ccccc1)C(=O)c1ccccc1-2,AC50,[5],8.45 µM (active)
O=c1c2ccccc2[nH]c2ccc(O)cc12,IC50,Large T antigen,9.16 µM (active)
same,AC50,Caspase-6,17.7 µM (active)
Cc1cc(-c2nnc(S)n2/N=C/c2c[nH]c3ccccc23)[nH]n1,IC50,Large T antigen,64 µM (active)
N/C(=N\N=C\c1ccc(O)c(O)c1)c1nonc1N,IC50,Large T antigen,23.4 µM (active)
same,EC50,[6],1.67 µM (active)
same,EC50,[7],1.74 µM (active)
Cc1cc(O)ccc1N/C=C1\CCCC1=O,IC50,Large T antigen,29.8 µM (active)
same,IC50,[8],22.7 µM (active)
CC(C)N(CCC(=O)c1ccc2ccccc2c1)Cc1ccccc1,AC50,[9],4.22 µM (active)
same,AC50,[10],17.3 µM (active)
same,AC50,[4],9.38 µM (active)
same,AC50,[11],> 70 µM (inactive)
same,AC50,[12],5.58 µM (active)
CC(C)c1c(O)ccc2c1CC[C@H]1C(C)(C)CCC[C@]21C [TOTAROL],AC50,[4],3.79 µM (active)
